Each structure is given as a SMILES string. Where two headings read alike, the source gives them in different places.

For orientation: ED50 means the dose that gives a 50% effect, or the effect in half of the subjects. A lower ED50 goes with an effect at a small dose. Usually inhibition stands for the drop in the measured response relative to a control, in per cent.

For one data set, the system named is mated hamsters. In words: abortifacient test in mated hamsters (Labhsetwar). It counts as in vivo, hamster. The following applies: Mesocricetus auratus, sc. The protocol: Furthermore, when the compounds of this invention are tested by the method of A. P. Labhsetwar, Nature 230, 528 (1971) whereby the compound is given subcutaneously on a daily basis to mated hamsters on days 4, 5 and 6 of pregnancy, thereafter the animals being sacrificed on day 7 of pregnancy and the number of abortions counted, the compounds are shown to have abortifacient properties.

For data set [1], the system named is secretion of gastric acid. Nature of the data set: inhibition of gastric acid secretion in rats (Shay et al.). It counts as in vivo. Conditions: po; orally, rat. The protocol: For example, when trans,cis-7-[2-(3-hydroxy-4,4-dimethyl-1-octenyl)-5-oxocyclopentyl]-5-heptanoic acid (Example 68) is given orally to the rat according to the aforementioned method, an ED50 of about 1.0 mg/kg is obtained for the compound.

The next data set relates to horse. In words: synchronization of estrus and regulation of ovulation in the horse. It counts as in vivo. The following applies: given on second and third day before expected estrus; rectal palpation. From the text:
It is often desirable to synchronize estrus in domestic animals, for example, horses, cattle, sheep, swine or dogs, in order to be able to perform artificial insemination or mating with a male of the desired genetic quality under optimum conditions. In the past, this has been done by administering to the animals an ovulation-inhibiting agent, withdrawing administration of said agent shortly before the date chosen for mating or artificial insemination, and relying either upon the natural production of LH and FSH to induce ovulation and to produce estrus or by administering gonadotrophins. However, this procedure was not entirely satisfactory because ovulation at a predetermined time occured only in a certain proportion of the animals when gonadotrophins were not used. On the other hand, the high cost of gonadotrophins and side effects encountered in their administration needs this method impractical. It is now possible to obtain substantially complete synchronization of ovulation and of estrus, by treating the animals in a given group with the compound of formula 1 before the predetermined period of time for mating or artificial insemination, so as to obtain ovulation and estrus within that time interval. The delay in the onset of ovulation and estrus following administration of the compound of this invention varies with the species of animal. […]

Data set [2] concerns histamine-induced bronchoconstriction. Nature of the data set: histamine-induced bronchoconstriction in the anesthetized guinea pig (Greenberg and Beaulieu). It counts as in vivo. The method, then:
(§1) Maximal effect was seen within 3 minutes after 10 μg/kg and returned to the control level within 50 minutes. Hypotension of short duration (1 - 2 minutes) occurred following this mode of administration. […] Maximal effect was seen within 3 minutes after 0.1 μg/kg and returned to the control level within 70 minutes.
Percentage inhibition of histamine-induced bronchoconstriction in the anesthetized guinea pig after intravenous administration of trans-7-[2-(3-hydroxy-3-methyl-1-octenyl)-5-oxocyclopentyl]heptanoic acid (Isomer B'). Each value is the mean of 8 - 12 experiments.
Percentage inhibition of histamine-induced bronchoconstriction in the anesthetized guinea pig after aerosol administration of trans-7-[2-(3-hydroxy-3-methyl-1-oxtenyl)-5-oxocyclopentyl]heptanoic acid (Isomer B'). Each value is the mean of 8 - 12 experiments.

The next data set has as its system blood pressure. Nature of the data set: blood pressure after administration in the anesthetized guinea pig. It counts as in vivo. The following applies: after aerosol administration. The method, then:
as §1

Data set [3] concerns guinea pig tracheal strip. In words: relaxation of carbachol-induced contractions of isolated guinea pig tracheal strips. Conditions: for RELAXATION of tracheal strip: carbachol-contracted, mean of 12 strips. From the text: The relaxation of the guinea pig tracheal strip by trans-7-[2-(3-hydroxy-3-methyl-1-octenyl)-5-oxocyclopentyl]heptanoic acid (Isomer B'). Each value is the mean of the responses of 12 strips.

The test system of the next data set is gastric secretion. The following applies: in vivo; cited from earlier work.
The subject of data set [4] is pregnancy. The following applies: rhesus monkey; cited from earlier work.
Data set [5] relates to pregnancy. The following applies: human; cited from earlier work.
The conditions of data set [6]: basic and acidic conditions; cited from earlier work.
Where [7] appears, read: 168 h, subcutaneous, days 4, 5 and 6 of pregnancy, sacrificed day 7, read-out: dose giving complete abortion in all animals.

For `CCCCCC(C)(O)/C=C/[C@H]1CCC(=O)[C@@H]1C/C=C\CCCC(=O)O` (relative stereo) [trans, cis-7-[2-(3-Hydroxy-3-methyl-1-octenyl)-5-oxocyclopentyl]-5-heptenoic Acid], the ED100 in the data set with mated hamsters (setting [7]) is 2.5 mg/kg/day.
Still for that read-out and setting: with `CCCCCC(C)(O)/C=C/[C@H]1CCC(=O)[C@@H]1CC/C=C\CCC(=O)O` (relative stereo) [trans, cis-7-[2-(3-hydroxy-3-methyl-1-octenyl)-5-oxocyclopentyl]-4-heptenoic acid] the figure was 1 mg/kg/day.
With `CCCCC(C)(C)C(O)/C=C/[C@H]1CCC(=O)[C@@H]1C/C=C\CCCC(=O)O` (relative stereo) [trans, cis-7-[2-(3-hydroxy-4,4-dimethyl-1-octenyl)-5-oxocyclopentyl]-5-heptenoicacid], in data set [1], the median effective dose (ED50) was ~1 mg/kg.
For `CCCCCC(C)(O)/C=C/[C@H]1CC[C@H](O)[C@@H]1C/C=C\CCCC(=O)O` (relative stereo) [trans, cis-7-[2α-hydroxy-5-(3-hydroxy-3-methyl-1-octenyl)cyclopentyl]-5-heptenoic acid], in the data set with horse, the “ovulation after estrus (majority of animals)” value is “from the fourth to the sixth day”.
For the compound `CCCCCC(C)(O)/C=C/[C@H]1CCC(O)[C@@H]1C/C=C\CCCC(=O)O` (relative stereo) [trans, cis-7[2-hydroxy-5-(3-hydroxy-3-methyl-1-octenyl)cyclopentyl]-5-heptenoic acid], in the data set on mated hamsters (setting [7]), the ED100 worked out at 0.5 mg/kg/day.
For `CCCCCC(C)(O)/C=C/[C@H]1CCC(=O)[C@@H]1CCCCCCC(=O)O` (relative stereo) [trans-7-[2-(3-hydroxy-3-methyl-1-octenyl)-5-oxocyclopentyl]-heptanoic acid], the “protection against histamine-induced bronchospasm” value in [2] (anesthetized guinea pig) was “significant protection”.
Regarding `CCCCCC(C)(O)/C=C/[C@H]1CCC(=O)[C@@H]1CCCCCCC(=O)O` (single isomer, unassigned) [Isomer B', trans-7-[2-(3-hydroxy-3-methyl-1-octenyl)-5-oxocyclopentyl]-heptanoic acid], the inhibition at 1e-05 mg/kg in data set [2] (Cavia porcellus, intravenous, 0.01 μg/kg, mean of 8 - 12 experiments) worked out at 14.8 ± 2%. Also, the inhibition at 0.0001 mg/kg in data set [2] (Cavia porcellus, intravenous, 0.1 μg/kg, mean of 8 - 12 experiments) worked out at 46.4 ± 5.5%. Further, the inhibition at 0.001 mg/kg in [2] (Cavia porcellus, intravenous, 1.0 μg/kg, mean of 8 - 12 experiments) stood at 66 ± 5.4%. 0.01 mg/kg produced 81.9 ± 5.2% inhibition in data set [2] (Cavia porcellus, intravenous, 10.0 μg/kg, mean of 8 - 12 experiments). The results for the “inhibition of histamine-induced bronchoconstriction, dose relation” value in data set [2] (aerosol) and in data set [2] (intravenous) were “linear dose related inhibition” and “linear dose related inhibitions”, respectively. For the same compound, the “times more potent than prostaglandin E2 or 11-deoxy-prostaglandin E1” value in [2] (aerosol) is 78 times; in data set [2] (intravenous), 32 times. Moreover, the “time of maximal effect” value in data set [2] (aerosol, after 0.1 μg/kg) is ≤ 3 min; in [2] (intravenous, after 10 μg/kg), ≤ 3 min. Besides, the “time of return to the control level” value was ≤ 70 min in data set [2] (aerosol, after 0.1 μg/kg) and ≤ 50 min in data set [2] (intravenous, after 10 μg/kg). The “% INHIBITION of histamine-induced bronchoconstriction” value in [2] (aerosol, total dose 10^-1 μg, mean of 8 - 12 experiments) is reported as 78.1 ± 4.2%; in [2] (aerosol, total dose 10^-2 μg, mean of 8 - 12 experiments), 66.8 ± 4.7%; in data set [2] (aerosol, total dose 10^-3 μg, mean of 8 - 12 experiments), 49.3 ± 5.0%; in data set [2] (aerosol, total dose 10^-4 μg, mean of 8 - 12 experiments) it was 38.6 ± 5.9%; in [2] (aerosol, total dose 10^-5 μg, mean of 8 - 12 experiments), 20.9 ± 5.1%. Moreover, the “changes in the blood pressure” value in the data set on blood pressure was “no notable changes in the blood pressure”. In addition, the “RELAXATION of tracheal strip” value in data set [3] (1.0 μg/ml) is given as 0.2 ± 0.2 g; in data set [3] (3.0 μg/ml) it was 0.39 ± 0.04 g; in data set [3] (10 μg/ml) it was 0.79 ± 0.1 g; in [3] (30 μg/ml) it was 1.29 ± 0.1 g. Further, the “relaxation of the tracheal strip, dose relation” value in data set [3] (cumulative concentrations) is listed as “linear dose related relaxation”.
As for `CCCCCC(C)(O)CCC1CCC(=O)C1CCCCCCC(=O)O` (centres unmarked) [2-(3-hydroxy-3-methyl-octyl)-5-oxocyclopentaneheptanoic acid, reference compound], in the data set on mated hamsters (comparison with saturated 15-methyl analog, above test, read-out: dose below which complete abortion is not caused), the ED100 is ≥ 30 mg/kg/day.
As for `CCCCC[C@@](C)(O)/C=C/[C@H]1[C@H](O)CC(=O)[C@@H]1C/C=C\CCCC(=O)O` [15(R)-methyl], in the data set with gastric secretion, the “effect on gastric secretion” value is “inhibit gastric secretion”.
As for `CCCCC[C@](C)(O)/C=C/[C@H]1[C@H](O)CC(=O)[C@@H]1C/C=C\CCCC(=O)O` [15(S)-methyl PGE2], the “effect on gastric secretion” value in the data set on gastric secretion is on record as “inhibit gastric secretion”.
Regarding `CCCCC[C@](C)(O)/C=C/[C@@H]1[C@@H](C/C=C\CCCC(=O)O)[C@@H](O)C[C@H]1O` [15-Methyl PGF2α], the effect on pregnancy result with pregnancy [4] and in the data set with pregnancy [5] was “interrupt pregnancy” in each case.
`CCCCCC(C)(O)/C=C/[C@H]1[C@H](O)CC(=O)[C@@H]1C/C=C\CCCC(=O)OC` (some centres unmarked) [15-methyl PGE2 methyl esters]: the effect on pregnancy entry with pregnancy [4] and with pregnancy [5] was “interrupt pregnancy” each time.
As for `CCCCC(C)(C)[C@H](O)/C=C/[C@H]1[C@H](O)CC(=O)[C@@H]1C/C=C\CCCC(=O)OC` [16,16-dimethyl PGE2 methyl ester], the “effect on gastric secretion” value in the data set with gastric secretion was “effective in inhibiting gastric acid secretion”.
`CCCCC[C@H](O)/C=C/[C@H]1[C@H](O)CC(=O)[C@@H]1C/C=C\CCCC(=O)O` [PGE2]: in data set [6], the “dehydration of the 11-hydroxy group” value is “participates readily in dehydration reactions”.

The values are drawn from US4048328A, “Alkyl derivatives of 4,5-dehydro PGF1” (American Home Products Corporation, priority 1976, dated 1977).
